Earlier results, collected in US8349353B2, “Controlled release cytotoxic agent compositions and methods for the treatment of otic disorders” (Otonomy, Inc., priority 2008, dated 2013).

Test system: V2-R
Conditions: infusion into the scala tympani

Compound: Cc1ccccc1C(=O)Nc1ccc(C(=O)N2CCCC(N(C)C)c3ccccc32)cc1 (stereo not shown) [OPC-31260]
- Meniere's disease symptoms: marked reduction of Meniere's disease symptoms
